# Activity calls are given as the source filed them.
# Tests used:
# Cytochrome P450 3A4 [1] = biological target: T1, Cytochrome P450 3A4 (Homo sapiens, UniProt P08684);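 also: CYP3A4 tested as one member of a cytochrome P450 panel screen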
# Cytochrome P450 2C9 = Cytochrome P450 2C9 (Homo sapiens, UniProt P11712)
# HeLa = assay: ATP-based viability loss in HeLa cells – cell-based, CellTiter-Glo luminescence, cherry-pick samples, cytotoxicity control for MITF activator project, dose response (AID 540259); assay type: functional; conditions: Homo sapiens
# Cytochrome P450 2C19 = Cytochrome P450 2C19 (Homo sapiens, UniProt P33261); assay: Cytochrome panel assay with activity outcomes. Panel member name: p450-cyp2c19 Compounds with AC50 equal or less than 10 uM are considered active; assay type: functional; conditions: read-out: AC50
# Nonstructural protein 1 = Nonstructural protein 1 (Influenza A virus, UniProt Q194T2); assay type: functional, Influenza A virus (A/California/07/2009(H1N1))
# [2] = microbe, parasite or virus in culture; assay type: functional; conditions: Mycobacterium tuberculosis
# H4 = assay: Luminescence Cell-Based Dose Response HTS to Identify Activators of 5'UTR Stem-Loop Driven Prion Protein mRNA Translation in H4 Neuroglioblastoma Cells. [Related pubchem assays: 1829 (Project Summary), 1814 (Primary HTS)]; assay type: functional; conditions: Homo sapiens
# Protein RecA = biological target: T2, Protein RecA (Mycobacterium tuberculosis, UniProt P9WHJ3); assay: Fluorescence Cell-Free Homogeneous Dose Retest to Identify Inhibitors of RecA-Intein Splicing Activity. [Related pubchem assays (depositor defined):AID2097, AID2223, AID489010, AID492950]; assay type: functional
# T2 sequence (P9WHJ3 whole entry): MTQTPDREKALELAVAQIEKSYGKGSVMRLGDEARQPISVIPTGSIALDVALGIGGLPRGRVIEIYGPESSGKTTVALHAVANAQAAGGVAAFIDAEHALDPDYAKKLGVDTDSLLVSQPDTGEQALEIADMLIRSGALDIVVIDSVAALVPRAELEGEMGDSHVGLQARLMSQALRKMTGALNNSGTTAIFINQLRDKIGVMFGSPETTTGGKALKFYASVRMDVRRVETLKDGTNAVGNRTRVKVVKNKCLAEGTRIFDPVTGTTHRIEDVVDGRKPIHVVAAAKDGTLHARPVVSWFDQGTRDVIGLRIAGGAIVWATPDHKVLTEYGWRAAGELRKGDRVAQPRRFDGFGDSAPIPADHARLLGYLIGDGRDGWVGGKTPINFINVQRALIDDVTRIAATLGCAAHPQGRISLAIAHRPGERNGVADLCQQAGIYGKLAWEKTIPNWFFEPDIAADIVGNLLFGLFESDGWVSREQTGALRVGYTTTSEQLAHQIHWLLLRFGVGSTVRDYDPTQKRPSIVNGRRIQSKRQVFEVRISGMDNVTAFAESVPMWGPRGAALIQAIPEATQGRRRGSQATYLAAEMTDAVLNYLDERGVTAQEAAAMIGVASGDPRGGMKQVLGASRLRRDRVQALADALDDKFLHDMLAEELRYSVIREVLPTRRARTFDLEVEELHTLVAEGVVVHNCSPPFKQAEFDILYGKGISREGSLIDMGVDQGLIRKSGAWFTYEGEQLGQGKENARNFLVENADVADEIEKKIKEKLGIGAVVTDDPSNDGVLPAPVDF
# [3] = biological target: T3, Replicative DNA helicase DnaB (Mycobacterium tuberculosis, UniProt P9WMR3); assay: DnaB intein splicing inhibitors, dose response, biochemical, cell-free fluorescence (AID 449749); assay type: functional
# T3 sequence (P9WMR3 whole entry): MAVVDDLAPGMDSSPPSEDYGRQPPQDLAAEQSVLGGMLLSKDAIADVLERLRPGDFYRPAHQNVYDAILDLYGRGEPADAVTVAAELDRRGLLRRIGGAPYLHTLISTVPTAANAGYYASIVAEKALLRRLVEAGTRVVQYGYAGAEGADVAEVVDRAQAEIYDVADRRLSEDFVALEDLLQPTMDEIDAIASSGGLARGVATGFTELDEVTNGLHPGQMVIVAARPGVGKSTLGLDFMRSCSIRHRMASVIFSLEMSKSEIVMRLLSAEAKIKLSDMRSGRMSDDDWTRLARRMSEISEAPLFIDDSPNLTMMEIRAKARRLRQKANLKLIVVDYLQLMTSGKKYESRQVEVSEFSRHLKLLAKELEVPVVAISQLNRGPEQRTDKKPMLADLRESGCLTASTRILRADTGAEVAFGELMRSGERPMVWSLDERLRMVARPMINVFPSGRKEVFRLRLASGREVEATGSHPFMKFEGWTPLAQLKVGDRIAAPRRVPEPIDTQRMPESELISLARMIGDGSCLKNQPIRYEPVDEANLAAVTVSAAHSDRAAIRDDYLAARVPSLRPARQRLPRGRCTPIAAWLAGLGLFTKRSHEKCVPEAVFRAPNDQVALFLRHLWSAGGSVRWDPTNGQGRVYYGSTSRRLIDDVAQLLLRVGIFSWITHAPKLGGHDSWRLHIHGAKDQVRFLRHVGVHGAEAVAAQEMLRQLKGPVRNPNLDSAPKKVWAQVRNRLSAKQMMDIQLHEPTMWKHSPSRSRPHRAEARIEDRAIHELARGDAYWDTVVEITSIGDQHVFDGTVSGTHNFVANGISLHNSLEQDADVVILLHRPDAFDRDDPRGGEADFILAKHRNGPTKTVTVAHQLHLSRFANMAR
# Leucine aminopeptidase = biological target: T4, Leucine aminopeptidase (Plasmodium falciparum 3D7, UniProt Q8IL11); assay: P. falciparum M17LAP inhibitors, primary screen, biochemical, fluorogenic H-Leu-NHMec substrate, 1536-well (AID 1619); assay type: functional
# T4 sequence (Q8IL11 whole entry): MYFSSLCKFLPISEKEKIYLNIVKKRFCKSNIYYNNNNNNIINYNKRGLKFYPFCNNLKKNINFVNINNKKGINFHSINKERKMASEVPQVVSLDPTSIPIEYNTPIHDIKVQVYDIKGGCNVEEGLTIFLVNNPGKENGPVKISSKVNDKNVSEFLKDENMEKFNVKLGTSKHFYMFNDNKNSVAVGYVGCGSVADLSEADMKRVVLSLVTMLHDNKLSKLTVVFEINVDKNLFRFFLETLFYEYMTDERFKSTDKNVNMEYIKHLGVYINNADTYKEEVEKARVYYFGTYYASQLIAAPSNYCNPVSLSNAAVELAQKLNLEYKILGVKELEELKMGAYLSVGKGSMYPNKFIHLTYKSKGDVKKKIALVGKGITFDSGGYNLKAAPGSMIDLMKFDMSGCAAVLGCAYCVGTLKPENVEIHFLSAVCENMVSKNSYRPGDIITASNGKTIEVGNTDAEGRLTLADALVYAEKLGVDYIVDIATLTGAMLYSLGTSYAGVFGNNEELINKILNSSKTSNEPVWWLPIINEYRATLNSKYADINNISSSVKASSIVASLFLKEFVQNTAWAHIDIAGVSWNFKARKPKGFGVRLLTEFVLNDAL
# [4] = biological target: Peroxisome proliferator-activated receptor gamma/Nuclear receptor coactivator 2 (Homo sapiens, UniProt P37231); assay type: functional;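 also: agonist potency for raising coactivator recruitment to the receptor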
# [5] = biological target: Peroxisome proliferator-activated receptor gamma/Nuclear receptor coactivator 3 (Homo sapiens, UniProt P37231); assay type: functional;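 also: agonist potency for raising coactivator recruitment to the receptor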
# [6] = biological target: T5, Rac GTPase-activating protein 1 (Homo sapiens, UniProt Q9H0H5); assay: blockers of MgcRacGAP-driven Rac1 GTP hydrolysis – biochemical, ADP Hunter fluorescence, primary and confirmatory, confirmation (AID 624330); assay type: functional
# T5 sequence (Q9H0H5 whole entry): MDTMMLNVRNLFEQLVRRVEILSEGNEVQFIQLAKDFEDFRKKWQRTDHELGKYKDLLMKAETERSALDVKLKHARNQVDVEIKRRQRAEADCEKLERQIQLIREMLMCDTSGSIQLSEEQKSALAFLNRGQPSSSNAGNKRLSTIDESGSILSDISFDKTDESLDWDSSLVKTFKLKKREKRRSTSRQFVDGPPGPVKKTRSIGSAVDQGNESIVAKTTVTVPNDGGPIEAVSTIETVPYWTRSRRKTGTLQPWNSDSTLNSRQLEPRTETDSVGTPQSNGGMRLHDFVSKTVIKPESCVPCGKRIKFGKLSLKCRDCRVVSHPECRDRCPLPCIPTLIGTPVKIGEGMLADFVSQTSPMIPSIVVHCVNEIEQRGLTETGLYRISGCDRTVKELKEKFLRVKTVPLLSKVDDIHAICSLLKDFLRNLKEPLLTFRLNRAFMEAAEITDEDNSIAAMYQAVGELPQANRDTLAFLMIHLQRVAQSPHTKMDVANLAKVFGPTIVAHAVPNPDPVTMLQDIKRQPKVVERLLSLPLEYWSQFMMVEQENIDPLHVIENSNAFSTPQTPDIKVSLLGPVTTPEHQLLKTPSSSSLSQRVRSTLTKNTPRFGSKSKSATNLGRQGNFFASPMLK
# [7] = biological target: Peroxisome proliferator-activated receptor gamma/Nuclear receptor coactivator 1 (Homo sapiens, UniProt P37231); assay type: functional;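 also: agonist potency as compounds enhance coactivator SRC-1 recruitment to PPARgamma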
# Cytochrome P450 3A4 [8] = biological target: T1, Cytochrome P450 3A4; remark: listed apart in the source
# [9] = viability loss in HeLa cells – cytotoxicity control for MgcRacGAP inhibitor project, dose response (AID 624300); assay type: functional
# [10] = Vero E6 cell cytotoxicity, dose response, cytotoxicity control for non-replicating M. tuberculosis project, secondary assay (AID 492998); assay type: functional, VeroE6; conditions: Vero C1008
# cells = assay type: functional
# [11] = THP-1 cell cytotoxicity, dose response, cytotoxicity control for non-replicating M. tuberculosis project (AID 489025); assay type: functional
# H9c2 = assay: cells; assay type: functional, cell-based; conditions: Rattus norvegicus, H9c2, Myocardium;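 also: confirmatory concentration-response retest of ultra-high-throughput screening hits for modulation of myocardial damage; cell death induced by hydrogen peroxide oxidative stress; compound pretreatment for 60 min then peroxide exposure for 2 h; potency is for protecting the cells against peroxide damage rather than for killing them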
# [12] = tested on: Streptococcus sp. 'group A'; assay: Streptococcus pyogenes SK(-)GAS viability under kanamycin – luminescence, BacTiterGlo, confirmation, counter-screen for streptokinase expression inhibitor project, dose response (AID 1900); assay type: functional, organism-based
# Streptococcus = assay: GAS UMAA2166 growth inhibition – luminescence, BacTiterGlo, counter-screen for streptokinase expression inhibitor project, dose response (AID 1915); assay type: functional, organism-based;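 also: potency for reduction of bacterial viability or growth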
# Streptokinase A = biological target: T6, Streptokinase A (Streptococcus pyogenes serotype M1, UniProt P10520); assay: viability-normalized secreted streptokinase activity reduction – plasminogen activation absorbance, OD405, dose response (AID 1914); assay type: functional, Streptococcus pyogenes M1 GAS;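 also: secreted streptokinase activity via plasminogen activation per viability signal from cell pellet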
# T6 sequence (P10520 whole entry): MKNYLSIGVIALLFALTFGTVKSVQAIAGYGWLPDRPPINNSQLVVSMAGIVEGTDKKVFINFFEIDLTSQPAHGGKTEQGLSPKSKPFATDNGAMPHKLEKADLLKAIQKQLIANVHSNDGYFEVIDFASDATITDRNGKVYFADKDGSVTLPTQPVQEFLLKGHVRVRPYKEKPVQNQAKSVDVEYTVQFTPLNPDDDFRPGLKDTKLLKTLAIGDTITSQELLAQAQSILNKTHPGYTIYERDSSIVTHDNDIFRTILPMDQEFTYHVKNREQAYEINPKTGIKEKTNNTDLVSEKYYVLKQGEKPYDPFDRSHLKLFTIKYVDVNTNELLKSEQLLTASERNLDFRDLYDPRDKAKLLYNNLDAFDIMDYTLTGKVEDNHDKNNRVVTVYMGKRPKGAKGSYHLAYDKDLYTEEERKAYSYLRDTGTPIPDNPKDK
# T1 sequence (P08684 whole entry): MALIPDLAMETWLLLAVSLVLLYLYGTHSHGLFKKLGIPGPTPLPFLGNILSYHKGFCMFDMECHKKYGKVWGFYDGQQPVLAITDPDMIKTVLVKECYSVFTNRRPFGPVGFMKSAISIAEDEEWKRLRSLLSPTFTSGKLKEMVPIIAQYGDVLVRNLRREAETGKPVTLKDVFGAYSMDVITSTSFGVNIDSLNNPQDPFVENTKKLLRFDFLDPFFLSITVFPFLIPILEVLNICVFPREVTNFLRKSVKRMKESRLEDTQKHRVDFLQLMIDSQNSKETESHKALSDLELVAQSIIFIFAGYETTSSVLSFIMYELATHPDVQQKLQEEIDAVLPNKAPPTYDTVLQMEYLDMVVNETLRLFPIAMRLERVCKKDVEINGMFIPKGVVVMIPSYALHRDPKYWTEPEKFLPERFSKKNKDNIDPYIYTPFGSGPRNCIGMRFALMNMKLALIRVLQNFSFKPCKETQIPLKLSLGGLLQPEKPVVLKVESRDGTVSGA
# Sequence of Nonstructural protein 1 (Q194T2 whole entry): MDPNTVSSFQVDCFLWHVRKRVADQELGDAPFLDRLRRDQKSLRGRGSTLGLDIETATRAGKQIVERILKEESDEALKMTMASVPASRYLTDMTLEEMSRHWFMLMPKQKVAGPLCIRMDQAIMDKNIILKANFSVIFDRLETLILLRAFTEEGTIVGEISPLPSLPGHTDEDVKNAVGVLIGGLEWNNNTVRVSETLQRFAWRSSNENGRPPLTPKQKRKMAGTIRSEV
# Sequence of Cytochrome P450 2C19 (P33261 whole entry): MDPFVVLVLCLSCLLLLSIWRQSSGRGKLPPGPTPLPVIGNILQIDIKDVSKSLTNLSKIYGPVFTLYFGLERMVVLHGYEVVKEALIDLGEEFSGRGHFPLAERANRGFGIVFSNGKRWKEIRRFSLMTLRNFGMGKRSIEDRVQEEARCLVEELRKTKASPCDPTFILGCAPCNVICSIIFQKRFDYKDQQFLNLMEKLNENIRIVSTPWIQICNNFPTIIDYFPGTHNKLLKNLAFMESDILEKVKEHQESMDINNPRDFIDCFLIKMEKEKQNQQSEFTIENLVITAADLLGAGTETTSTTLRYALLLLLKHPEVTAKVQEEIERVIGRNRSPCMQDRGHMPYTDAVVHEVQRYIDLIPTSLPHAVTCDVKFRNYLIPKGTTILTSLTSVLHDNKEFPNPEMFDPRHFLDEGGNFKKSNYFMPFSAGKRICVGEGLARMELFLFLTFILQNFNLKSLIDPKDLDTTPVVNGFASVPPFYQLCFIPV
# Sequence of Cytochrome P450 2C9 (P11712 whole entry): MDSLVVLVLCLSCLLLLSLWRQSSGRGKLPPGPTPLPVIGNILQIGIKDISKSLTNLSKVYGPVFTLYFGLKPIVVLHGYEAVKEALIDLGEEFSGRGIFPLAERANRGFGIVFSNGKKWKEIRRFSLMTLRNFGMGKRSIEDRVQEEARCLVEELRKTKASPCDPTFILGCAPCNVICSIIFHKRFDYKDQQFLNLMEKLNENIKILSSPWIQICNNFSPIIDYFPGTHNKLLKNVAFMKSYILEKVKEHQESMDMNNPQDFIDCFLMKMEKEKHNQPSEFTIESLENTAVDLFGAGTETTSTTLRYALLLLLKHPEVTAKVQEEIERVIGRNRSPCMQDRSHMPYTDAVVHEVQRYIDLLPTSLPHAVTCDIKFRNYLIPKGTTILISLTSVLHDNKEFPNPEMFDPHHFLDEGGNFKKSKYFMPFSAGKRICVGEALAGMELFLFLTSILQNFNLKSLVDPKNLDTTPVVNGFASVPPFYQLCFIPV
# Sequence of Peroxisome proliferator-activated receptor gamma/Nuclear receptor coactivator 2 (P37231 whole entry): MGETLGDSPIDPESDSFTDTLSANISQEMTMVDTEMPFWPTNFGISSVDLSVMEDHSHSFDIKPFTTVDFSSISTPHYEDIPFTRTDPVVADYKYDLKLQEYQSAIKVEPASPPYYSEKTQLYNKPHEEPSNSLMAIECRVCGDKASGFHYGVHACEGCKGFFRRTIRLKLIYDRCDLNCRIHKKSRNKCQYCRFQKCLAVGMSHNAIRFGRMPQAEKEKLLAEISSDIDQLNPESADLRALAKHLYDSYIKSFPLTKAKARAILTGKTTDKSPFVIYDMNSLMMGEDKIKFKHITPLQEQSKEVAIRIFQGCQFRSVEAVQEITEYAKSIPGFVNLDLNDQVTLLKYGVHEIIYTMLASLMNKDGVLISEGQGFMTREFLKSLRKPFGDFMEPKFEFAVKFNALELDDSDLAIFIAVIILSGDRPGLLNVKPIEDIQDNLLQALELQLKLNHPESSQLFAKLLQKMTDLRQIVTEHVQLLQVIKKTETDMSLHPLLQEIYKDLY
# Sequence of Peroxisome proliferator-activated receptor gamma/Nuclear receptor coactivator 2 (Q15596 whole entry, further chain): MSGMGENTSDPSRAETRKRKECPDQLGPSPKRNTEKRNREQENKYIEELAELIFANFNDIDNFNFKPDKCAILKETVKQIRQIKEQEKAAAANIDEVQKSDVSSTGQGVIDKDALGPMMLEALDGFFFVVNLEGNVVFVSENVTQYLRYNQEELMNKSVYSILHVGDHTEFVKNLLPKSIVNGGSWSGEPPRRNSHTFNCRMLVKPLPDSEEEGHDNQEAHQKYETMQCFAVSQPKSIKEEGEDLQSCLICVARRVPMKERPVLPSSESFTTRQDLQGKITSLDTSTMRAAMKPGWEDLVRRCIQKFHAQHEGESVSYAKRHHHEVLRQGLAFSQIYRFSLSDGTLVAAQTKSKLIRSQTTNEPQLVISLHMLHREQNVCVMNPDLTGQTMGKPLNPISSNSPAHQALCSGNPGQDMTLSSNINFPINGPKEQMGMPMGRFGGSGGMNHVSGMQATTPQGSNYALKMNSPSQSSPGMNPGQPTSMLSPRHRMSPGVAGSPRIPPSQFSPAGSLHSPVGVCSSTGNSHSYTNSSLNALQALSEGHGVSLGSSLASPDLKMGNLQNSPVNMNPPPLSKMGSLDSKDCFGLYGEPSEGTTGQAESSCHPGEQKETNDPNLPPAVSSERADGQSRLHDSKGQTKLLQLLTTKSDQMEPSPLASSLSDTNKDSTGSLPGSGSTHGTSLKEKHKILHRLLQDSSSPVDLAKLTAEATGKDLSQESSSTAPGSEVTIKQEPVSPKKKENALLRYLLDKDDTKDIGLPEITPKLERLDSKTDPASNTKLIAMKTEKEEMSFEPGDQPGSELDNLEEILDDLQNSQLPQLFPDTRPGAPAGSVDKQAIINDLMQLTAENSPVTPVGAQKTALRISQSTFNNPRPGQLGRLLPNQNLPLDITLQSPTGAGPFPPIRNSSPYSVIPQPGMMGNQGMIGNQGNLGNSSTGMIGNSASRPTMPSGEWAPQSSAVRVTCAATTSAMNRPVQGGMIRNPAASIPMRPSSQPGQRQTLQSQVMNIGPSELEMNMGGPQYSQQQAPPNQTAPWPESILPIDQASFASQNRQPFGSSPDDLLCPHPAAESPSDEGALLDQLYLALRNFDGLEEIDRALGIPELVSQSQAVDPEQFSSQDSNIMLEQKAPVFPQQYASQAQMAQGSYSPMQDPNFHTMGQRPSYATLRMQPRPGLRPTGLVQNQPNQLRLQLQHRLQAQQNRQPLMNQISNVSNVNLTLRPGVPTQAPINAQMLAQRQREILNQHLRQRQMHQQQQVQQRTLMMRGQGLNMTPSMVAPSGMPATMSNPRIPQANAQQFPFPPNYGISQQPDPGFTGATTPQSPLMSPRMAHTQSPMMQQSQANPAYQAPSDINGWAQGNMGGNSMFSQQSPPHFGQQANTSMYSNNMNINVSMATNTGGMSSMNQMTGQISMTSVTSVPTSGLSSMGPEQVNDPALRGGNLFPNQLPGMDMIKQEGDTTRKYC
smiles,measurement,setting,value
CCC(C)NC(=O)C1CCN(C(=O)c2ccccc2)CC1 (stereo unspecified),AC50,Cytochrome P450 3A4 [1],inconclusive
O=C(COc1ccc(Cl)cc1)Nc1ccc(N2CCN(C(=O)c3ccco3)CC2)cc1,AC50,Cytochrome P450 3A4 [1],inconclusive
same,AC50,Cytochrome P450 2C9,1.12 µM (inconclusive)
C=CCn1cccc(C(=O)Nc2ccc(Cl)cc2)c1=O,AC50,HeLa,99.8 µM (active)
C[C@]12CC[C@H]3c4ccc(O)cc4CC[C@@H]3[C@H]1CC[C@@H]2OC(=O)CCC1CCCC1,AC50,Cytochrome P450 2C19,6.31 µM (inconclusive)
same,AC50,Cytochrome P450 3A4 [1],inconclusive
O=C1N=C(N2CCC(Cc3ccccc3)CC2)S/C1=C/c1c[nH]nc1-c1ccccc1,AC50,Cytochrome P450 3A4 [1],inconclusive
CCOC(=O)c1ccc(N2N=C(C)/C(=C/C=C/c3ccco3)C2=O)cc1,IC50,Nonstructural protein 1,> 100 µM (active)
O=C(NCCC1=CCCCC1)NC12CC3CC(CC(C3)C1)C2,CC50,[2],> 40 µM (active)
same,AC50,HeLa,215 µM (active)
same,EC50,H4,6.24 µM (active)
Cc1c(Cl)cccc1NC(=O)CSCc1cc(=O)[nH][nH]1,EC50,Protein RecA,> 380 µM (inconclusive)
same,AC50,[3],> 380 µM (inactive)
same,IC50,Leucine aminopeptidase,62.3 µM (active)
CN(C)c1ccc(/N=C/C=C2\N(C)c3ccccc3C2(C)C)cc1,IC50,Nonstructural protein 1,13.8 µM (active)
same,EC50,[4],> 79.4 µM (not active)
same,EC50,[5],> 79.4 µM (not active)
same,IC50,[6],12.2 µM (active)
same,EC50,[7],> 79.4 µM (not active)
same,AC50,Cytochrome P450 3A4 [8],15.8 µM (inconclusive)
same,CC50,[9],100 µM (active)
CC(C)(C)c1ccc(C(=O)N2CCCC2)s1,CC50,[10],> 20 µM (active)
CC(C)c1nnc(NC(=O)c2c(O)c3cccc4c3n(c2=O)CCC4)s1,CC50,[10],17.1 µM (active)
same,IC50,cells,7.34 µM (active)
same,CC50,[11],8.21 µM (active)
COc1c(O)cccc1/C=N/NC(=O)Cn1ccnc1C,IC50,Nonstructural protein 1,20.4 µM (active)
same,IC50,H9c2,> 79 µM (inactive)
CC(C)Nc1cc(C(C)(C)C)nc2c(-c3ccccc3)cnn12,EC50,[12],6.01 µM (active)
same,AC50,HeLa,58.2 µM (active)
same,EC50,Streptococcus,15.9 µM (active)
same,EC50,Streptokinase A,13.6 µM (active)
